Reference: patent publication US10774064B2 (Cadent Therapeutics, Inc., priority 2016, dated 2020)

Target: T1, small-conductance Ca2+-activated K+ channels (SK channels, subtype 2) (Homo sapiens, UniProt Q9H2S1)
T1 construct: expressed in transfected cells; host or cells: HEK293
Assay: whole-cell patch-clamp of ionic current through SK2 channels in HEK293 cells (SC100)
Assay type: cell-based
Conditions: whole-cell patch-clamp, HEK293 cells expressing SK2 channels; concentration that increases the basal current by 100%
Summary of the method: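 SC100, the concentration doubling basal current (a 100% increase), was taken from SK2 currents recorded by whole-cell patch-clamp in SK2-expressing HEK293 cells.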

SC100 (μM) | SMILES
+ (+ means >1 uM) | COC(C)c1cc(-c2nc(C)cs2)nc(NC2CCC(F)(F)CC2)n1 (stereo not drawn) [NSSy6697, N-(4,4-difluorocyclohexyl)-4-(1-methoxyethyl)-6-(4-methylthiazol-2-yl)pyrimidin-2-amine]
+ (+ means >1 uM) | Cc1ccn(-c2cc(N)nc(NC3CCC(F)(F)CC3)n2)n1 [NSSy6698, N2-(4,4-difluorocyclohexyl)-6-(3-methyl-1H-pyrazol-1-yl)pyrimidine-2,4-diamine]
+ (+ means >1 uM) | COCCNc1cc(-n2ccc(C)n2)nc(NC2CCC(F)(F)CC2)n1 [NSSy6700]
+ (+ means >1 uM) | Cc1csc(-c2cc(-c3nc(C)cs3)nc(NC3CCC(F)(F)CC3)n2)n1 [NSSy6704, N-(4,4-difluorocyclohexyl)-4,6-bis(4-methylthiazol-2-yl)pyrimidin-2-amine]
+ (+ means >1 uM) | Cc1csc(-c2cc(C#N)nc(NC3CCC(F)(F)CC3)n2)n1 [NSSy6710, 2-((4,4-difluorocyclohexyl)amino)-6-(4-methylthiazol-2-yl)pyrimidine-4-carbonitrile]
++ (++ means 200 nM-1000 nM) | COCc1cc(-c2nc(C)cs2)nc(NC2CCC(F)(F)CC2)n1 [NSSy6711, N-(4,4-difluorocyclohexyl)-4-(methoxymethyl)-6-(4-methylthiazol-2-yl)pyrimidin-2-amine]
+++ (+++ means <200 nM) | Cc1ccn(-c2cc(OCCn3nncc3C)cc(NC3CCC(F)(F)CC3)n2)n1 [NSSy6719]
+ (+ means >1 uM) | Cc1cc(C)n(-c2cc(C#N)nc(NC3CCC(F)(F)CC3)n2)n1 [NSSy6721, 2-((4,4-difluorocyclohexyl)amino)-6-(3,5-dimethyl-1H-pyrazol-1-yl)pyrimidine-4-carbonitrile]
+ (+ means >1 uM) | Cc1ccn(-c2cc(C#N)nc(NC3CCC(F)(F)CC3)n2)n1 [NSSy6722, 2-((4,4-difluorocyclohexyl)amino)-6-(3-methyl-1H-pyrazol-1-yl)pyrimidine-4-carbonitrile]
++ (++ means 200 nM-1000 nM) | COCc1cc(-n2nc(C)cc2C)nc(NC2CCC(F)(F)CC2)n1 [NSSy6724]
+ (+ means >1 uM) | CO[C@@H](C)c1cc(-c2nc(C)cs2)nc(NC2CCC(F)(F)CC2)n1 [NSSy6729, (S)—N-(4,4-difluorocyclohexyl)-4-(1-methoxyethyl)-6-(4-methylthiazol-2-yl)pyrimidin-2-amine]
++ (++ means 200 nM-1000 nM) | Cc1csc(-c2cc(CO)cc(NC3CCC(F)(F)CC3)n2)n1 [NSSy6730, (2-((4,4-difluorocyclohexyl)amino)-6-(4-methylthiazol-2-yl)pyridin-4-yl) methanol]
+ (+ means >1 uM) | Cc1nc(NC2CCC(F)(F)CC2)nc(-n2nc(C)c(Br)c2C)c1Br [NSSy6736, 5-bromo-4-(4-bromo-3,5-dimethyl-1H-pyrazol-1-yl)-N-(4,4-difluorocyclohexyl)-6-methylpyrimidin-2-amine]
++ (++ means 200 nM-1000 nM) | COCc1cc(-n2ccc(C)n2)nc(NC2CCC(F)(F)CC2)n1 [NSSy6744, N-(4,4-difluorocyclohexyl)-4-(methoxymethyl)-6-(3-methyl-1H-pyrazol-1-yl)pyrimidin-2-amine]
++ (++ means 200 nM-1000 nM) | Cc1csc(-c2cc(C(O)c3nnc(C)o3)cc(NC3CCC(F)(F)CC3)n2)n1 (stereo not drawn) [NSSy6750, (2-((4,4-difluorocyclohexyl)amino)-6-(4-methylthiazol-2-yl)pyridin-4-yl)(5-methyl-1,3,4-oxadiazol-2-yl)methanol]
++ (++ means 200 nM-1000 nM) | Cc1ccn(-c2cc(CO)cc(Nc3ccc(F)cc3F)n2)n1 [NSSy6773]
++ (++ means 200 nM-1000 nM) | Cc1csc(-c2cc(C(O)Cc3nnco3)cc(NC3CCC(F)(F)CC3)n2)n1 (stereo not drawn) [NSSy6782, 1-(2-((4,4-difluorocyclohexyl)amino)-6-(4-methylthiazol-2-yl)pyridin-4-yl)-2-(1,3,4-oxadiazol-2-yl)ethan-1-ol]
++ (++ means 200 nM-1000 nM) | Cc1ccn(-c2cc(CN(C)C)nc(NC3CCC(F)(F)CC3)n2)n1 [NSSy6783, N-(4,4-difluorocyclohexyl)-4-((dimethylamino)methyl)-6-(3-methyl-1H-pyrazol-1-yl)pyrimidin-2-amine]
++ (++ means 200 nM-1000 nM) | Cc1ccn(-c2cc(CC#N)nc(NC3CCC(F)(F)CC3)n2)n1 [NSSy6800, 2-(2-((4,4-difluorocyclohexyl)amino)-6-(3-methyl-1H-pyrazol-1-yl)pyrimidin-4-yl)acetonitrile]
+ (+ means >1 uM) | Cc1ccn(-c2cc(CO)cc(N(C(N)=O)C3CCC(F)(F)CC3)n2)n1 [NSSy6812, 1-(4,4-difluorocyclohexyl)-1-(4-(hydroxymethyl)-6-(3-methyl-1H-pyrazol-1-yl)pyridin-2-yl) urea]
+ (+ means >1 uM) | Cc1ccn(-c2cc(C(O)c3cnco3)cc(NC3CCC(F)(F)CC3)n2)n1 (stereo not drawn) [NSSy6846]
++ (++ means 200 nM-1000 nM) | Cc1cn(CCOc2cc(NC3CCC(F)(F)CC3)nc(-n3ccc(C)n3)c2)nn1 [NSSy6849]
++ (++ means 200 nM-1000 nM) | COc1cc(NC2CCC(F)(F)CC2)nc(-n2ccc(C3CC3)n2)n1 [NSSy6850]

SC100 (μM) | SMILES
++ (++ means 200 nM-1000 nM) | COCc1cc(NC2CCC(F)(F)CC2)nc(-n2nc(C)cc2C)c1 [NSSy6861, N-(4,4-difluorocyclohexyl)-6-(3,5-dimethyl-1H-pyrazol-1-yl)-4-(methoxymethyl)pyridin-2-amine]
++ (++ means 200 nM-1000 nM) | COCc1cc(NC2CCC(F)(F)CC2)nc(-n2ccc(C3CC3)n2)n1 [NSSy6880]
+ (+ means >1 uM) | CC(O)c1cc(NC2CCC(F)(F)CC2)nc(-n2ccc(C3CC3)n2)n1 (stereo not drawn) [NSSy6881, 1-(2-(3-cyclopropyl-1H-pyrazol-1-yl)-6-((4,4-difluorocyclohexyl)amino)pyrimidin-4-yl) ethan-1-ol]
+++ (+++ means <200 nM) | COC(=O)N1CCC(c2cc(NC3CCC(F)(F)CC3)nc(-n3ccc(C)n3)c2)CC1 [NSSy6885]
+ (+ means >1 uM) | CC(=O)N1CCN(c2cc(-n3ccc(F)n3)nc(NC3CCC(F)(F)CC3)n2)CC1 [NSSy6886]
+++ (+++ means <200 nM) | Cc1ccn(-c2cc(C3CCN(C)CC3)cc(NC3CCC(F)(F)CC3)n2)n1 [NSSy6888]
+ (+ means >1 uM) | COc1cc(NC2CCC(F)(F)CC2)nc(-c2cccc(C)n2)n1 [NSSy6889]
++ (++ means 200 nM-1000 nM) | Cc1ccn(-c2cc(COC(N)=O)cc(NC3CCC(F)(F)CC3)n2)n1 [NSSy6891, (2-((4,4-difluorocyclohexyl)amino)-6-(3-methyl-1H-pyrazol-1-yl)pyridin-4-yl)methyl carbamate]
++ (++ means 200 nM-1000 nM) | Cc1ccn(-c2cc(C3CCNCC3)cc(NC3CCC(F)(F)CC3)n2)n1 [NSSy6897, N-(4,4-difluorocyclohexyl)-6-(3-methyl-1H-pyrazol-1-yl)-4-(piperidin-4-yl)pyridin-2-amine]
++ (++ means 200 nM-1000 nM) | CC(=O)N1CCN(c2cc(-n3ccc(C4CC4)n3)nc(NC3CCC(F)(F)CC3)n2)CC1 [NSSy6909, 1-(4-(6-(3-cyclopropyl-1H-pyrazol-1-yl)-2-((4,4-difluorocyclohexyl)amino)pyrimidin-4-yl)piperazin-1-yl)ethan-1-one]
+++ (+++ means <200 nM) | CC(=O)N1CCC(c2cc(NC3CCC(F)(F)CC3)nc(-n3ccc(C)n3)c2)CC1 [NSSy6910]
++ (++ means 200 nM-1000 nM) | Cc1ccn(-c2cc(OC3CCS(=O)(=O)CC3)nc(NC3CCC(F)(F)CC3)n2)n1 [NSSy6913]
+++ (+++ means <200 nM) | CC(=O)N1CCC(Oc2cc(-n3ccc(C)n3)nc(NC3CCC(F)(F)CC3)n2)CC1 [NSSy6914]
++ (++ means 200 nM-1000 nM) | CC(=O)N1CCN(c2cc(-n3ccc(CF)n3)nc(NC3CCC(F)(F)CC3)n2)CC1 [NSSy6917]
++ (++ means 200 nM-1000 nM) | COC(=O)N1CCN(c2cc(-n3ccc(C)n3)nc(NC3CCC(F)(F)CC3)n2)CC1 [NSSy6924, methyl 4-(2-((4,4-difluorocyclohexyl)amino)-6-(3-methyl-1H-pyrazol-1-yl)pyrimidin-4-yl)piperazine-1-carboxylate]
++ (++ means 200 nM-1000 nM) | CC(=O)N1CCN(c2cc(-n3ccc(C(F)F)n3)nc(NC3CCC(F)(F)CC3)n2)CC1 [NSSy6930, 1-(4-(2-((4,4-difluorocyclohexyl)amino)-6-(3-(difluoromethyl)-1H-pyrazol-1-yl)pyrimidin-4-yl)piperazin-1-yl)ethan-1-one]
+ (+ means >1 uM) | CC(=O)N1CCN(c2cc(-n3ccc(CO)n3)nc(NC3CCC(F)(F)CC3)n2)CC1 [NSSy6931, 1-(4-(2-((4,4-difluorocyclohexyl)amino)-6-(3-(hydroxymethyl)-1H-pyrazol-1-yl)pyrimidin-4-yl)piperazin-1-yl)ethan-1-one]
++ (++ means 200 nM-1000 nM) | Cc1cc(NC2CCC(F)(F)CC2)nc(-n2ccc(C3CC3)n2)n1 [NSSy6935]
+ (+ means >1 uM) | COc1ccn(-c2cc(N3CCN(C(C)=O)CC3)nc(NC3CCC(F)(F)CC3)n2)n1 [NSSy6936]
+ (+ means >1 uM) | FC1(F)CCC(Nc2ccnc(-n3ccc(C4CC4)n3)n2)CC1 [NSSy6941, 2-(3-cyclopropyl-1H-pyrazol-1-yl)-N-(4,4-difluorocyclohexyl)pyrimidin-4-amine]
++ (++ means 200 nM-1000 nM) | FC1(F)CCC(Nc2nccc(-n3ccc(C4CC4)n3)n2)CC1 [NSSy6945, 4-(3-cyclopropyl-1H-pyrazol-1-yl)-N-(4,4-difluorocyclohexyl)pyrimidin-2-amine]
+ (+ means >1 uM) | CC(=O)N1CCN(c2cc(-n3nccc3C3CC3)nc(NC3CCC(F)(F)CC3)n2)CC1 [NSSy6957, 1-(4-(6-(5-cyclopropyl-1H-pyrazol-1-yl)-2-((4,4-difluorocyclohexyl)amino)pyrimidin-4-yl)piperazin-1-yl)ethan-1-one]
